The numbers were not newly measured in patent US20220054402A1, “COMPOSITIONS AND METHODS FOR EXTRACTING, STABILIZING, AND MAN[…] DOSAGE FORMS OF PSILOCIN, P[…], ENTHEOGENS, AND MEDICINAL MUSHROOMS AS NANO-D[…] DELIVERY STRUCTURES” (priority 2020, published 2022), which cites them from elsewhere.

The conditions of data set [1]: oral ingestion.
Data set [2] concerns the target serotonin 5-HT2A receptor (Homo sapiens, UniProt P28223). Particulars: psilocin versus psilocybin.
For data set [3] the following is noted: β-glucan embedded in chitin cell walls.

Sequence of serotonin 5-HT2A receptor (P28223 whole entry): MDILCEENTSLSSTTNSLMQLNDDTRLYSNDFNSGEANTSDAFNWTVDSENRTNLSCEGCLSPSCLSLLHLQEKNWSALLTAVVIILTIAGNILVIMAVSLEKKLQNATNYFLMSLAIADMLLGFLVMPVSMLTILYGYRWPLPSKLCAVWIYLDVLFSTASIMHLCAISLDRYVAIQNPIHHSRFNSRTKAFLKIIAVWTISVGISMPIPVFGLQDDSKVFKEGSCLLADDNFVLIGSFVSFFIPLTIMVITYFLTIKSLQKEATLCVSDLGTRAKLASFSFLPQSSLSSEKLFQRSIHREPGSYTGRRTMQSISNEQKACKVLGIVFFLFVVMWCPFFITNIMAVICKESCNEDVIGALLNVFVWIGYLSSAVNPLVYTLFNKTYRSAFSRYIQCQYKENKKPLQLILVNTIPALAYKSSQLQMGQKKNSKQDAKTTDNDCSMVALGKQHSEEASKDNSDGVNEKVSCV

For `COc1cc(CCN)cc(OC)c1OC` [Mescaline, 5-trimethoxyphenethylamine], in data set [1], the “reported onset time of effects from ingesting” value is 60 to 180 min. For the compound `CN(C)CCc1c[nH]c2cccc(O)c12` [Psilocin, 4-hydroxy-NN-dimethyltryptamine], the “affinity for binding the serotonin 5-HT2A receptor relative to psilocybin” value in data set [2] is listed as “more than 200 times”.

On to β-glucan, for which, in data set [3], the bioavailability entry was “less than 5%”.
